From US20220175850A1, “COMPOSITIONS AND METHODS FOR CANCER THERAPY” (priority 2019, published 2022) come the findings set out here.

The test system of one assay is HCC827GR cells. As to the kind of experiment: Marker protein expression in Iressa-resistant HCC827GR lung cancer cells. The format is cell-based, human. The text has this: The HCC827GR cell line is a lung cancer cell line that is resistant to Iressa.
The test system of assay [1] is triple negative breast cancer cells. As to the kind of experiment: Tumor marker expression in animal model of triple negative breast cancer, supplement with or without chemotherapeutic drugs. It counts as in vivo, mice. The following applies: primary tumor; supplement at low, mid, high dose with Taxol or Adriamycin; drugs alone.
Assay [2] shares this test system. Described as above. It counts as in vivo, mice. The protocol:
[…] Animals were also treated with taxol, taxol and the supplement in combination, adriamycin, adriamycin and the supplement in combination, avastin, and avastin and the supplement in combination.
FIG. 9A depicts a typical study design for animal model studies of this phenomena. Three different supplement formulations were used that provided low (NFS), mid (NFM-containing 1.5 times the Se content of NFS), and high (NFH, containing twice the Se content of NFS) doses of selenium and fish oil. These supplement formulations were provided in combination with a chemotherapeutic drug (such as Taxol or Adriamycin).
As noted above, nutritional supplements can be provided that include different amounts of selenium (Se), and can also be provided with or used in combination with a chemotherapeutic agent.
CD24 and CD29 are markers that are commonly used to determine degree of stem cell character. […] Mice were also treated with taxol, taxol and the supplement in combination, adriamycin, adriamycin and the supplement in combination, avastin, and avastin and the nutritional supplement in combination. […] As in FIG. 9, nutritional supplements containing low, mid, and high amounts of selenium were provided in combination with either avastin or taxol.

For assay [3], the system named is A549 human lung cancer sphere cells. Description: Marker protein expression in stem-cell like A549 sphere cells. It counts as cell-based.
Text: FIG. 7B depicts an exemplary Western blot of PD-L1 expression in stem-cell like sphere cells derived from A549 human lung cancer cells.
Setting [4] is: metastatic brain tumor site, different amounts of supplement in combination with Taxol, taxol alone.
Setting [5] is: tumor, supplement at low, mid, high doses in combination with taxol or avastin, drug alone.

Consider `COc1cc2ncnc(Nc3ccc(F)c(Cl)c3)c2cc1OCCCN1CCOCC1` [Iressa], for which, in the assay with HCC827GR cells (24 hours of treatment, in either the absence or presence of Iressa), the Axl expression entry is “not reduced”. In addition, in the assay with HCC827GR cells (72 hours), the Axl expression entry was “no apparent effect” and the HSP90 expression result is given as “no apparent effect”. Moreover, the PD-L1 expression result with HCC827GR cells (chemotherapy resistant cancer cells) was “has no effect”.
Take `COc1cccc2c1C(=O)c1c(O)c3c(c(O)c1C2=O)C[C@@](O)(C(=O)CO)C[C@@H]3O[C@H]1C[C@H](N)[C@H](O)[C@H](C)O1` [adriamycin]: in assay [1], the PD-1 expression entry was “increased slightly” and the PD-L1 expression entry was “no apparent effect”.
As to `CC(=O)O[C@H]1C(=O)[C@@]2(C)[C@H]([C@H](OC(=O)c3ccccc3)[C@]3(O)C[C@H](OC(=O)[C@H](O)[C@@H](NC(=O)c4ccccc4)c4ccccc4)C(C)=C1C3(C)C)[C@]1(OC(C)=O)CO[C@@H]1C[C@@H]2O` [taxol], in assay [2] (setting [4]), the CD24 expression result is reported as “no apparent effect”, the CD29 expression result is recorded as “no apparent effect”, the MMP-9 expression result was “no apparent effect” and the VEGF expression result is “no apparent effect”. Moreover, the EGFR expression entry in assay [2] (tumor tissue, supplement with different amounts of selenium co-treated with taxol or avastin, drug alone) is “not impacted”. Moreover, in assay [2] (setting [5]), the PTEN expression entry is given as “increase induced by taxol”, the p-PTEN expression result is listed as “decrease induced by either taxol or avastin” and the p-STAT3 expression entry was “decrease induced by either taxol or avastin”. For the same compound, in assay [1], the PD-1 expression entry is reported as “increased slightly” and the PD-L1 expression entry is listed as “no apparent effect”.
In the case of “avastin: chemotherapeutic agent used in the animal tumor model”, the CXCR4 expression entry in assay [2] (tumor tissue, avastin alone or cotherapy with supplement at low, mid, high doses) was “little effect”. Moreover, in assay [2] (setting [5]), the p-PTEN expression result was “decrease induced by either taxol or avastin” and the p-STAT3 expression entry is “decrease induced by either taxol or avastin”.
As for selenium, in assay [3], the p-HSP27 expression entry is listed as “not found” and the vimentin expression result is “not seen”.
